The values below come from US8653046B2, “Controlling transgene expression across the skin” (ETH Zurich, priority 2009, dated 2014).

Structures are written as SMILES.

One series addresses TtgA1 (TtgR-VP16) (Pseudomonas putida, UniProt Q9AIU0). Put plainly: PEACE: SEAP expression after transient co-transfection of pMG10 (PTtgR1-SEAP-pA) and pMG11 (PSV40-TtgA1-pA). Format: cell-based. More on the design: key to SEAP Production: ^a): Undetectable. The conditions noted are these: 48 h. The source says:
Living in the plant rhizosphere, Pseudomonas putida DOT-T1E has evolved resistance to a variety of plant-derived antimicrobials, which is triggered by phloretin-induced release of TtgR protein from the operator (OTtgR) of its target promoter and subsequent induction of a broadly specific TtgABC efflux pump (Teran W. et al., loc. cit.).
Three different transactivators are designed, harboring either the VP16 (TtgA1; pMG11, TtgR-VP16) (Triezenberg S. J. et al., loc. cit.), the p65 (TtgA2; pMG18, TtgR-p65) (Urlinger S., et al., 2000, Gene 247(1-2):103-110) or the human E2F4 (TtgA3; pMG19, TtgR-E2F4) (Akagi K., Kanai M., Saya H., Kozu T., Berns A., 2001, Nucleic Acids Res 29(4):e23) transactivation domains. pMG11, pMG18 or pMG19 are co-transfected with pMG10 (PTtgR1-SEAP-pA) into CHO-K1, HEK-293 as well as primary human fibroblasts and keratinocytes, and SEAP expression is profiled after 48 h of cultivation in the presence or absence of 50 μM phloretin.
CHO-K1 are transiently (co-)transfected with either pMG10 (PTtgR1-SEAP-pA) and pMG11 (PSV40-TtgA1-pA), to score regulation performance, or with pSEAP2-Control (PSV40-SEAP-pA), to assess compound-related cytotoxicity, and then cultivated for 48 h in medium containing different concentrations (0, 25, 50 μM) of specific flavonoid type compounds (berberine, butylparaben, genistein, luteolin, β-naphthol, naringenin, phloretin, phloridzin or quercetin) before SEAP production is profiled (FIG. 5A).
Wild-type Chinese hamster ovary cells (CHO-K1, ATCC: CCL-61) and their derivatives are cultivated in standard medium: ChoMaster® HTS (Cell Culture Technologies, Gravesano, Switzerland) supplemented with 5% (v/v) fetal calf serum (FCS, PAN Biotech GmbH, Aidenbach, Germany, Cat. No. 3302, Lot No. P251110) and 1% (v/v) penicillin/streptomycin solution (Sigma, St Louis, Mo., USA, Cat. No. P4458). Human embryonic kidney cells (HEK-293, Mitta B., et al., 2002, Nucleic Acids Res 30(21):e113), African green monkey kidney cells (COS-7, ATCC: CRL-1651), baby hamster kidney cells (BHK-21, ATCC: CCL10), human fibrosarcoma cells (HT-1080, ATCC: CCL-121), the human keratinocyte cell line HaCaT (Boukamp P., et al., 1988, J Cell Biol 106(3):761-771) and mouse fibroblasts (NIH/3T3, ATCC: CRL-1658) are cultured in Dulbecco's modified Eagle's medium (DMEM; Invitrogen, Cat. No. 52100-39) supplemented with 10% FCS (v/v) and 1% (v/v) penicillin/streptomycin solution. Primary human foreskin fibroblasts are cultivated in DMEM supplemented with 20% FCS (v/v) and 1% (v/v) penicillin/streptomycin solution and primary human foreskin keratinocytes are cultured in chemically defined serum-free keratinocyte medium (Invitrogen, Cat. No. 10744019). All cell types are cultivated at 37° C. in a 5% CO2-containing humidified atmosphere.

The subject of another series is CHO-K1. Briefly: Impact of phloretin on CHO-K1 engineered for constitutive SEAP expression (SEAP production, viable cell density). The note with it: 48 h. It counts as cell-based, Chinese hamster. On the procedure:
CHO-K1 engineered for constitutive SEAP expression are cultivated in culture medium supplemented with different phloretin concentrations (0-100 μM) and SEAP production (bars) as well as maximum cell density are assessed after 48 h (line). Abbreviations: C.D.: Cell Density (10^6/mL); Phl.: Phloretin (μM)
To evaluate the stability of phloretin in culture medium and assess its impact on mammalian cells, standard ChoMaster® HTS medium is supplemented with increasing concentrations of phloretin (0, 25, 50, 75, 100 μM), and this medium is incubated in the presence and absence of CHO-K1 engineered for constitutive SEAP expression (pSEAP2-Control; PSV40-SEAP-pA, Clontech). […] Phloretin levels determined over a period of 64 h in cell-free culture medium establish a functional half-live of 70 h for this flavonoid.

Chain of TtgA1 (TtgR-VP16) (Q9AIU0 whole entry, added parts left off): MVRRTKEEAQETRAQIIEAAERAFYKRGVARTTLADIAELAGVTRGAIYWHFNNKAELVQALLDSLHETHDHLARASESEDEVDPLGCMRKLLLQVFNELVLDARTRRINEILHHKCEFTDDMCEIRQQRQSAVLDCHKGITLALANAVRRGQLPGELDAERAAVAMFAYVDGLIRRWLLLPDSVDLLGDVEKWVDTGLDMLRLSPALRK

Take `O=C(CCc1ccc(O)cc1)c1c(O)cc(O)cc1O` [phloretin, 3-[4-hydroxyphenyl]-1-[2,4,6-trihydroxyphenyl]-1-propanone]: the SEAP Production on TtgA1 (TtgR-VP16) (BHK-21, 50 μM Phloretin) is on record as 1.5 ± 0.2 U/L; on TtgA1 (TtgR-VP16) (CHO-K1, phloretin 50 μM), 0.2 ± 0.016 U/L; on TtgA1 (TtgR-VP16) (COS-7, 50 μM Phloretin) it was “*”; at TtgA1 (TtgR-VP16) (HEK-293, 50 μM Phloretin) it was 0.2 ± 0.04 U/L; at TtgA1 (TtgR-VP16) (HEK-293, phloretin 50 μM), 0.2 ± 0.04 U/L; at TtgA1 (TtgR-VP16) (HT-1080, 50 μM Phloretin) it was “*”. Besides, the SEAP Production result at TtgA1 (TtgR-VP16) (HaCaT, 50 μM Phloretin) is recorded as “*”; on TtgA1 (TtgR-VP16) (NIH/3T3, 50 μM Phloretin) it was “*”; at TtgA1 (TtgR-VP16) (Primary human fibroblasts, 50 μM Phloretin) it was “*”; on TtgA1 (TtgR-VP16) (Primary human keratinocytes, 50 μM Phloretin), “*”. In addition, the “PEACE regulation performance (SEAP production)” value at TtgA1 (TtgR-VP16) (CHO-K1, 0, 25, 50 μM) is recorded as “full transgene repression”. The “SEAP expression dose response” value on TtgA1 (TtgR-VP16) (CHO-K1, phloretin 0-70 μM) is given as “dose-dependent reduction of SEAP expression up to complete repression”. Besides, in the series on CHO-K1 (CHO-K1 constitutive SEAP (pSEAP2-Control), phloretin 0, 25, 50, 75, 100 μM), the “impact on heterologous protein (SEAP) production” value is on record as “no negative impact on heterologous protein production”. The “viable cell density / CHO-K1 proliferation” value with CHO-K1 (phloretin up to 100 μM) is given as “does not compromise CHO-K1 proliferation”.
